This test has as its target T1, histamine 3 receptor (H3R) (Homo sapiens, UniProt Q9Y5N1).
T1 construct: expressed in transfected cells; host or cells: CHO cells (HR3-CHO), membrane preparation
Nature of the test: Binding assay with 3H-(R)α-methylhistamine, competition binding on membranes of the human HR3-CHO cell line. The note with it: 3H(R)α-Methylhistamine 1 nM, Ki calculated from IC50 by Cheng-Prusoff. As for the experimental part:
Binding Assay with ^3H-(R)α-methylhistamine
Saturation binding experiments were performed using HR3-CHO membranes prepared as described in Takahashi, K, Tokita, S., Kotani, H. (2003) J. Pharmacol. Exp. Therapeutics 307, 213-218.
An appropriate amount of membrane (60 to 80 μg protein/well) was incubated with increasing concentrations of ^3H(R)α-Methylhistamine di-hydrochloride (0.10 to 10 nM). Non specific binding was determined using a 200 fold excess of cold (R)α-Methylhistamine dihydrobromide (500 nM final concentration). The incubation was carried out at room temperature (in deep-well plates shaking for three hours). The final volume in each well was 250 μl. The incubation was followed by rapid filtration on GF/B filters (pre-soaked with 100 μl of 0.5% PEI in Tris 50 mM shaking at 200 rpm for two hours). The filtration was made using a cell-harvester and the filter plates were then washed five times with ice cold washing buffer containing 0.5 M NaCl. After harvesting, the plates were dried at 55° C. for 60 min, then we added scintillation fluid (Microscint 40, 40 microl in each well) and the amount of radioactivity on the filter was determined in Packard top-counter after shaking the plates for two hours at 200 rpm at room temperature.
Binding Buffer: 50 mM Tris-HCl pH 7.4 and 5 mM MgCl2×6H2O pH 7.4. Washing Buffer: 50 mM Tris-HCl pH 7.4 and 5 mM MgCl2×6H2O and 0.5 M NaCl pH 7.4.
Indirect measurement of affinity of H3R inverse agonists: twelve increasing concentrations (ranging from 10 μM to 0.3 nM) of the selected compounds were always tested in competition binding experiments using membrane of the human HR3-CHO cell line. An appropriate amount of protein, e.g. approximately 500 cpm binding of RAMH at Kd, were incubated for 1 hour at room temperature in 250 μl final volume in 96-well plates in presence of ^3H(R)α-Methylhistamine (1 nM final concentration=Kd). […]
All compounds were tested at a single concentration in duplicates. […] Ki's were calculated from IC50 based on Cheng-Prusoff equation (Cheng, Y, Prusoff, W H (1973) Biochem Pharmacol 22, 3099-3108).
T1 sequence (Q9Y5N1 whole entry): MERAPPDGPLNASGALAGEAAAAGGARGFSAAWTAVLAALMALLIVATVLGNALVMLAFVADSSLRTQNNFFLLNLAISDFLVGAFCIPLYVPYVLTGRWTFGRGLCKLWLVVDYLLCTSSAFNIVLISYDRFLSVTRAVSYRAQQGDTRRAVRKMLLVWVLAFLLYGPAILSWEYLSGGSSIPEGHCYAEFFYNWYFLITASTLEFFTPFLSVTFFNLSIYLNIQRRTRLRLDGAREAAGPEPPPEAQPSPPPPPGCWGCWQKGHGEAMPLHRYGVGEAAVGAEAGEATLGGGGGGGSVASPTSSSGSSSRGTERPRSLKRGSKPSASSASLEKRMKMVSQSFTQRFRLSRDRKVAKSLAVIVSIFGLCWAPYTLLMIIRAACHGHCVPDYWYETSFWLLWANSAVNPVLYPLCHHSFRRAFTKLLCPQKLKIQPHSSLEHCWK
A word on the Ki: it is a measure of affinity in units of concentration, obtained from inhibition or displacement. Regarding `CCCS(=O)(=O)N[C@H]1CC[C@H](C(=O)N2CCN(C(C)C)CC2)CC1` [Example 1, N-{trans-4-[(4-isopropylpiperazin-1-yl)carbonyl]cyclohexyl}propane-1-sulfonamide], the Ki is 0.0548 µM.

Take `COc1ccc(S(=O)(=O)N[C@H]2CC[C@H](C(=O)N3CCN(C(C)C)CC3)CC2)c(OC)c1` [Example 15, N-{trans-4-[(4-isopropyl-piperazin-1-yl)carbonyl]-cyclohexyl}-2,4-dimethoxy-benzenesulfonamide]: the Ki was 0.0234 µM.

In the case of `CC(C)N1CCN(C(=O)[C@H]2CC[C@H](N(C(C)C)S(=O)(=O)c3ccc(F)c(Cl)c3)CC2)CC1` [Example 64, 3-chloro-4-fluoro-N-isopropyl-N-[trans-4-(4-isopropyl-piperazine-1-carbonyl)-cyclohexyl]-benzenesulfonamide], the Ki was 0.0089 µM.

These data come from patent US8017773B2, “Cyclohexyl sulfonamide derivatives” (Hoffmann-La Roche Inc., priority 2006, dated 2011).
